Literature values as cited in patent US20030153801A1, “Compositions of cyclooxygenase-2 selective inhibitors and radiation for inhibition or prevention of cardiovascular disease” (Pharmacia Corporation, priority 2001, published 2003).

Assays:
[1] = test system: coronary intimal proliferation; details: oral administration; swine model of restenosis
[2] = test system: vascular smooth muscle cells; details: in vitro
[3] = single dose pretreatment, intravenous, before coronary stenting
restenosis = details: orally administered; stent implanted pig arteries

For CN(C)CCCO[C@@H]1[C@H]2OC(C)(C)O[C@H]2O[C@@H]1[C@H](O)CO.Cl [aniprilose hydrochloride], the coronary intimal proliferation [1] is given as “did not prevent”.
For COc1cc(/C=C/C(=O)CC(=O)/C=C/c2ccc(O)c(OC)c2)ccc1O [curcumin], the “proliferation of vascular smooth muscle cells” value [2] is listed as “reduced”.
In the case of C[C@H]1C[C@@H]2[C@H]([C@@H](O)C[C@@]3(C)[C@H]2CC[C@]3(O)C(=O)CO)[C@@]2(C)C=CC(=O)C=C12 [methylpridnisolone], the “change in minimal lumen diameter at 6 months” value [3] is given as “no effect”.
In the case of COc1ccc(C=CC(=O)Nc2ccccc2C(=O)O)cc1OC [tranilast, N-(3,4-dimethoxycinnamoyl) anthranilic acid], the rate of restenosis (restenosis) is listed as “lower”.
